Structures are written as SMILES.

Sequence of p38α (Q16539 whole entry): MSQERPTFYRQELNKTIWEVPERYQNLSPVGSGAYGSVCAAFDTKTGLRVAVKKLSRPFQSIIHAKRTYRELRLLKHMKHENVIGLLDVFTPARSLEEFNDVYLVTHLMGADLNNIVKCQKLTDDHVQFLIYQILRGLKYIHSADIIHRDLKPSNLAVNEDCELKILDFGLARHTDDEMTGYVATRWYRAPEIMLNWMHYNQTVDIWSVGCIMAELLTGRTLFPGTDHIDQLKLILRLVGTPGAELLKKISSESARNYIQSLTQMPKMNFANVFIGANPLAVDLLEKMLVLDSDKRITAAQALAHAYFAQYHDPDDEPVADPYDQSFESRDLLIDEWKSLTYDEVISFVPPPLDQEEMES

One assay has as its target p38α (Homo sapiens, UniProt Q16539). The assay is described as follows: p38α/MK2 cascade assay. The class given is biochemical. To be noted: Table 1; inhibitors preincubated with p38α for 40 minutes; phosphorylation of Hsp27 peptide by MK-2, Caliper LabChip 3000; read-out: p38a/MK2 Cascade 40 min Pre-Incuabtion (% Inhibition): IC50. Put shortly:
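In a cascade format, p38α was preincubated 40 min with inhibitor (1000–0.05 nM) before adding 1 nM nonactive MK2 (54-400), 5 μM MgATP and 0.5 μM FITC-Hsp27 peptide. Reaction ran 60 min in HEPES pH 7.5 with MgCl2, DTT, 2% DMSO, then EDTA-quenched. Peptide phosphorylation was measured by Caliper mobility shift to give IC50.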
Consider `COc1ccc(Cn2c(C)cc(OCc3ccccc3CNC(=O)Nc3cc(C(C)(C)C)nn3-c3cccc(O)c3)cc2=O)cc1` [Example 55, 1-[3-tert-butyl-1-(3-hydroxyphenyl)-1H-pyrazol-5-yl]-3-[2-({[1-(4-methoxybenzyl)-6-methyl-2-oxo-1,2-dihydropyridin-4-yl]oxy}methyl)benzyl]urea], for which the IC50 worked out at 24.3 nM.
The same measure, in the same setting: in the case of `COc1cccc(Cn2c(C)cc(OCc3ccccc3CNC(=O)Nc3cc(C(C)(C)C)nn3-c3cccc(O)c3)c(Cl)c2=O)c1` [Example 52, 1-[3-tert-butyl-1-(3-hydroxyphenyl)-1H-pyrazol-5-yl]-3-[2-({[3-chloro-1-(3-methoxybenzyl)-6-methyl-2-oxo-1,2-dihydropyridin-4-yl]oxy}methyl)benzyl]urea] it was 6.2 nM.
The same measure, in the same setting: next, `COc1cccc(Cn2c(C)cc(OCc3ccc(F)cc3CNC(=O)Nc3cc(C(C)(C)C)nn3-c3ccc(O)c(Cl)c3)c(Cl)c2=O)c1` [Example 46, 1-[3-tert-butyl-1-(3-chloro-4-hydroxyphenyl)-1H-pyrazol-5-yl]-3-[2-({[3-chloro-1-(3-methoxybenzyl)-6-methyl-2-oxo-1,2-dihydropyridin-4-yl]oxy}methyl)-5-fluorobenzyl]urea]: 4 nM; `Cc1cc(OCc2ccccc2CNC(=O)Nc2cc(C(C)(C)C)nn2-c2ccc(F)cc2F)c(Br)c(=O)n1Cc1ccccc1` [Example 105, 1-(2-{[(1-benzyl-3-bromo-6-methyl-2-oxo-1,2-dihydropyridin-4-yl)oxy]methyl}benzyl)-3-[3-tert-butyl-1-(2,4-difluorophenyl)-1H-pyrazol-5-yl]urea]: 8.19 nM.
In the case of `COc1cccc(-n2nc(C(C)(C)C)cc2NC(=O)NCc2cc(F)ccc2COc2cc(C)n(-c3cc(C(=O)O)ccc3C)c(=O)c2Cl)c1` [Example 189, 3-{4-[(2-{[({[3-tert-butyl-1-(3-methoxyphenyl)-1H-pyrazol-5-yl]amino}carbonyl)amino]methyl}-4-fluorobenzyl)oxy]-3-chloro-6-methyl-2-oxopyridin-1(2H)-yl}-4-methylbenzoic acid], the IC50 was determined as 2.55 nM.
Still for that read-out and setting: next, `COc1ccc(Cn2c(C)cc(OCc3ccccc3CNC(=O)Nc3cc(C(C)(C)C)nn3-c3cccc(F)c3)c(Br)c2=O)cc1` [Example 97, 1-[2-({[3-bromo-1-(4-methoxybenzyl)-6-methyl-2-oxo-1,2-dihydropyridin-4-yl]oxy}methyl)benzyl]-3-[3-tert-butyl-1-(3-fluorophenyl)-1H-pyrazol-5-yl]urea]: 3.9 nM; `COc1cc(Cn2c(C)cc(OCc3ccccc3CNC(=O)Nc3cc(C(C)(C)C)nn3-c3cccc(O)c3)c(Cl)c2=O)ccc1Cl` [Example 81, 1-[3-tert-butyl-1-(3-hydroxyphenyl)-1H-pyrazol-5-yl]-3-[2-({[3-chloro-1-(4-chloro-3-methoxybenzyl)-6-methyl-2-oxo-1,2-dihydropyridin-4-yl]oxy}methyl)benzyl]urea]: 20.1 nM.
`COc1ccc(Cn2c(C)cc(OCc3ccc(F)cc3CNC(=O)Nc3cc(C(C)(C)C)nn3-c3ccc(O)c(Cl)c3)c(Cl)c2=O)cc1` [Example 62, 1-[3-tert-butyl-1-(3-chloro-4-hydroxyphenyl)-1H-pyrazol-5-yl]-3-[2-({[3-chloro-1-(4-methoxybenzyl)-6-methyl-2-oxo-1,2-dihydropyridin-4-yl]oxy}methyl)-5-fluorobenzyl]urea]: the IC50 came out at 4.5 nM.
`COc1cccc(Cn2c(C)cc(OCc3ccc(F)cc3CNC(=O)Nc3cc(C(C)(C)C)nn3-c3cccc(OCCO)c3)cc2=O)c1` [Example 37, 1-{3-tert-butyl-1-[3-(2-hydroxyethoxy)phenyl]-1H-pyrazol-5-yl}-3-[5-fluoro-2-({[1-(3-methoxybenzyl)-6-methyl-2-oxo-1,2-dihydropyridin-4-yl]oxy}methyl)benzyl]urea]: the IC50 was found to be 29.3 nM.
For `COc1cccc(Cn2c(C)cc(OCc3ccc(F)cc3CNC(=O)Nc3cc(C(C)(C)C)nn3-c3cccc(OC)c3)cc2=O)c1` [Example 35, 1-[3-tert-butyl-1-(3-methoxyphenyl)-1H-pyrazol-5-yl]-3-[5-fluoro-2-({[1-(3-methoxybenzyl)-6-methyl-2-oxo-1,2-dihydropyridin-4-yl]oxy}methyl)benzyl]urea], the IC50 was determined as 42.2 nM.
Take `COc1cccc(Cn2c(C)cc(OCc3ccc(F)cc3CNC(=O)Nc3cc(C(C)(C)C)nn3-c3cccc(OCCOC4CCCCO4)c3)c(Cl)c2=O)c1` (stereo not shown) [Example 41, 1-(3-tert-butyl-1-{3-[2-(tetrahydro-2H-pyran-2-yloxy)ethoxy]phenyl}-1H-pyrazol-5-yl)-3-[2-({[3-chloro-1-(3-methoxybenzyl)-6-methyl-2-oxo-1,2-dihydropyridin-4-yl]oxy}methyl)-5-fluorobenzyl]urea]: the IC50 was found to be 21.6 nM.
As for `COc1cccc(Cn2c(C)cc(OCc3ccccc3CNC(=O)Nc3cc(C(C)(C)C)nn3-c3cccc(OCCO)c3)cc2=O)c1` [Example 38, 1-{3-tert-butyl-1-[3-(2-hydroxyethoxy)phenyl]-1H-pyrazol-5-yl}-3-[2-({[1-(3-methoxybenzyl)-6-methyl-2-oxo-1,2-dihydropyridin-4-yl]oxy}methyl)benzyl]urea], the IC50 was 31.1 nM.

Staying with this assay, now noted: Table 2; same p38α/MK2 cascade assay; 40 minutes preincubation; read-out: p38a/MK2 Cascade 40 min Pre-Incuabtion (% Inhibition): IC50.
`Cc1ccc(C(=O)NCCN(C)C)cc1-n1c(C)cc(OCc2ccccc2CNC(=O)Nc2cc(C(C)(C)C)nn2-c2ccc(Cl)c(O)c2)c(Cl)c1=O` [Example 231, 3-{4-[(2-{[({[3-tert-butyl-1-(4-chloro-3-hydroxyphenyl)-1H-pyrazol-5-yl]amino}carbonyl)amino]methyl}benzyl)oxy]-3-chloro-6-methyl-2-oxopyridin-1(2H)-yl}-N-[2-(dimethylamino)-ethyl]-4-methylbenzamide]: the IC50 worked out at 1.8 nM.
Take `CNC(=O)c1ccc(C)c(-n2c(C)cc(OCc3ccccc3CNC(=O)Nc3cc(C(C)(C)C)nn3-c3ccc(Cl)c(O)c3)c(Cl)c2=O)c1` [Example 226, 3-{4-[(2-{[({[3-tert-butyl-1-(4-chloro-3-hydroxyphenyl)-1H-pyrazol-5-yl]amino}carbonyl)amino]methyl}benzyl)oxy]-3-chloro-6-methyl-2-oxopyridin-1(2H)-yl}-N,4-dimethylbenzamide]: the IC50 came to 3.6 nM.
In the case of `Cc1ccc(C(=O)NCCO)cc1-n1c(C)cc(OCc2ccccc2CNC(=O)Nc2cc(C(C)(C)C)nn2-c2ccc(O)cc2)c(Cl)c1=O` [Example 216, 3-{4-[(2-{[({[3-tert-butyl-1-(4-hydroxyphenyl)-1H-pyrazol-5-yl]amino}carbonyl)amino]methyl}benzyl)oxy]-3-chloro-6-methyl-2-oxopyridin-1(2H)-yl}-N-(2-hydroxyethyl)-4-methyl-benzamide], the IC50 was 1.8 nM.
In the case of `CSc1ccccc1Cn1c(C)cc(OCc2ccccc2CNC(=O)Nc2cc(C(C)(C)C)nn2-c2ccc(Cl)c(O)c2)c(Cl)c1=O` [Example 273, 1-[3-tert-butyl-1-(4-chloro-3-hydroxyphenyl)-1H-pyrazol-5-yl]-3-{2-[({3-chloro-6-methyl-1-[2-(methylthio)benzyl]-2-oxo-1,2-dihydropyridin-4-yl}oxy)methyl]benzyl}urea], the IC50 was found to be 121 nM.
Take `COC(=O)c1ccc(C)c(-n2c(C)cc(OCc3ccccc3CNC(=O)Nc3cc(C(C)(C)C)nn3-c3ccc(O)cc3)c(Cl)c2=O)c1` [Example 213, methyl 3-{4-[(2-{[({[3-tert-butyl-1-(4-hydroxyphenyl)-1H-pyrazol-5-yl]amino}carbonyl)amino]methyl}benzyl)oxy]-3-chloro-6-methyl-2-oxopyridin-1(2H)-yl}-4-methylbenzoate]: the IC50 is 4 nM.
Still for that read-out and setting: next, `COc1cc(Cn2c(C)cc(OCc3ccccc3CNC(=O)Nc3cc(C(C)(C)C)nn3-c3ccc(O)cc3)c(Cl)c2=O)ccc1Cl` [Example 258, 1-[3-tert-butyl-1-(4-hydroxyphenyl)-1H-pyrazol-5-yl]-3-[2-({[3-chloro-1-(4-chloro-3-methoxybenzyl)-6-methyl-2-oxo-1,2-dihydropyridin-4-yl]oxy}methyl)benzyl]urea]: 10.1 nM; `Cc1ccc(C(=O)NCC(N)=O)cc1-n1c(C)cc(OCc2ccccc2CNC(=O)Nc2cc(C(C)(C)C)nn2-c2ccc(O)cc2)c(Cl)c1=O` [Example 219, N-(2-amino-2-oxoethyl)-3-{4-[(2-{[({[3-tert-butyl-1-(4-hydroxyphenyl)-1H-pyrazol-5-yl]amino}carbonyl)amino]-methyl}benzyl)oxy]-3-chloro-6-methyl-2-oxopyridin-1(2H)-yl}-4-methylbenzamide]: 0.9 nM.
As to `Cc1cc(OCc2ccccc2CNC(=O)Nc2cc(C(C)(C)C)nn2-c2ccc(O)c(Cl)c2)c(Cl)c(=O)n1Cc1cccc(CNC(=O)CO)c1` [Example 261, N-[3-({4-[(2-{[({[3-tert-butyl-1-(3-chloro-4-hydroxyphenyl)-1H-pyrazol-5-yl]amino}carbonyl)amino]methyl}benzyl)oxy]-3-chloro-6-methyl-2-oxopyridin-1(2H)-yl}methyl)benzyl]-2-hydroxyacetamide], the IC50 turned out to be 8.9 nM.
Consider `COCCNC(=O)c1ccc(C)c(-n2c(C)cc(OCc3ccc(F)cc3CNC(=O)Nc3cc(C(C)(C)C)nn3-c3ccc(Cl)c(O)c3)c(Cl)c2=O)c1` [Example 235, 3-{4-[(2-{[({[3-tert-butyl-1-(4-chloro-3-hydroxyphenyl)-1H-pyrazol-5-yl]amino}carbonyl)amino]methyl}-4-fluorobenzyl)-oxy]-3-chloro-6-methyl-2-oxopyridin-1(2H)-yl}-N-(2-methoxy-ethyl)-4-methylbenzamide], for which the IC50 worked out at 4.2 nM.
The same measure, in the same setting: in the case of `COc1ccccc1Cn1c(C)cc(OCc2ccccc2CNC(=O)Nc2cc(C(C)(C)C)nn2-c2cccc(O)c2)c(Cl)c1=O` [Example 247, 1-[3-tert-butyl-1-(3-hydroxyphenyl)-1H-pyrazol-5-yl]-3-[2-({[3-chloro-1-(2-methoxybenzyl)-6-methyl-2-oxo-1,2-dihydropyridin-4-yl]oxy}methyl)benzyl]urea] it was 10.5 nM.

For the origin of these results see US20090270350A1, “Pyridinone Pyrazole Urea and Pyrimidinone Pyrazole Urea Derivatives” (PFIZER INC., priority 2006, published 2009).
